Reference: US4489062A, “Pharmaceutical compounds, preparation, use and intermediates therefor and their preparation” (priority 1982, dated 1984)
Where a SMILES comes first, the peptide text is derived from it. [ ]: non-standard residue; d: D form. Phe(4-NO2) = N[C@@H](Cc1ccc([N+](=O)[O-])cc1)C(=O)O

Key:
Assay type in all cases: in vivo
[1] = system: female CD1 mice; experiment: Irritant-induced writhing test, acetic acid; conditions: s.c. 15 mins. prior to i.p. 0.6% acetic acid, Ex. compounds calculated as the peptide per se; for ED50: Mus musculus, 0.25 h
Text: (§1) (1) Both the hotplate test (Woolfe and MacDonald, J. Pharmacol. Exp. Ther. 80:300, 1944) and the irritant-induced writhing (stretch) test (Vander Wende and Margolin, Fed. Proc. 15:494, 1956) are standard in the art for the investigation of analgesic activity. Whereas it is believed that the pain in the latter can be ameliorated either centrally or peripherally, it is thought that that induced in the hotplate test is affected only at the central level.
(§2) (i) Acetic Acid. Groups of five female CD1 mice (Charles River) received either a test compound or saline vehicle (0.85%) control by subcutaneous injection 15 mins. (unless otherwise indicated) prior to an intraperitoneal injection of 0.6% acetic acid at a dose volume of 25 ml/kg. After a further 20 mins. the writhing or stretching movements induced by the irritant were counted over a 21/2 min. period, a writhe/stretch being identified as an extension of a hindlimb accompanied by constriction of the abdomen.
(§3) The ED50 figures for the test compounds were calculated, using linear regression analysis, as the dose in the presence of which only half the number of writhes/stretches was induced compared with the controls.

[2] = system: female CD1 mice; experiment: Irritant-induced writhing test, phenylbenzoquinone (PBQ); conditions: s.c. 15 mins. prior to PBQ 2.5 mg/kg, Ex. compounds calculated as the peptide per se; for ED50: Mus musculus, 0.25 h
Text: as §1, §2
(ii) Phenylbenzoquinone (PBQ). This test was carried out in a parallel manner to that employing acetic acid, […], except that the period over which the writhing/stretching movements were counted began 10 mins. after administration of the PBQ irritant, the latter being given at a dosage of 2.5 mg/kg and in a dose volume of 10 ml/kg.
as §3

[3] = system: male TFW mice; experiment: Antagonism by quaternary opioid (N-methylnalorphine) in acetic acid writhing test; conditions: for ED50: Mus musculus, 20 min, read-out: ED50 (mg/kg, s.c.) Saline control (b); for ED50 / ED50 (mg/kg, s.c.) Saline control (b): acetic acid writhing, saline i.p. 20 mins. before test compound s.c., Ex. compounds calculated as the peptide per se; for Dose ratio (a):(b): ratio of equiactive doses in presence and absence of N-methylnalorphine, calculated from the linear regression of the dose/response curves
Text: (3) The analgesia induced by the peptides in the writhing test upon peripheral (parenteral) administration is antagonised by parenteral administration of the quaternary opioid antagonist N-allyl-normorphine methiodide (N-methylnalorphine; Koczka et al, Acta Chim. Acad. Sci. Hung. 51:393, 1967), i.e. a higher dose of the peptide is required in the presence than in the absence of the opioid for the same effect. As penetration of the blood-brain barrier by the quaternary compound is minimal (c.f. Tavani et al, European J. Pharmacol. 59:151-154, 1979) both the peptide-induced analgesia and the antagonism thereof are effected at the peripheral level.
Groups of six male TFW mice (Tuck) received by intraperitoneal injection either N-methylnalorphine (16 mg/kg) or saline vehicle (0.85%) control at a volume of 10 ml/kg followed after 20 mins. by a solution of the test compound in saline (10 ml/kg, subcutaneous) and after a further 30 mins. by 0.6% acetic acid (25 ml/kg, intraperitoneal). The total number of writhes/stretches per group was then determined over the 5 min. period commencing 15 mins. after administration of the acetic acid. Using linear regression analysis the ED50 figures for the test compounds were calculated (defined as in (B) supra) together with the dose ratios therefor, i.e. the ratios of the dose of compound required for equiactive antinociceptive effect in respectively the presence and the absence of the quaternary compound.

[4] = system: Male mice (CFLP strain); experiment: Hotplate test; conditions: 55° C. hotplate, 15 mins. after treatment, reaction time twice the pretreatment figure, Ex. compounds calculated as the peptide per se; for ED50: Mus musculus, sc
Text: as §1
Male mice (CFLP strain, Hacking and Churchill) were individually placed in a copper-bottomed perspex box suspended in a water bath at 55° C. and observed for signs of discomfort such as shaking or licking the paws, the reaction time (up to a maximum of 30 secs.) being recorded. Groups of five animals then received either a test compound or saline vehicle (0.85%) control by subcutaneous injection, the test being repeated at 15 mins. after treatment. The ED50 figures for the test compounds were calculated from the number of animals having a posttreatment reaction time which was twice the pretreatment figure.

[5] = system: Female Cobs Wistar rats; experiment: Antidiarrhoeal activity (castor oil-induced diarrhoea); conditions: calculated as the peptide per se; for ED50 (mg/kg, s.c.) antidiarrhoeal, 1.5 hrs.: 1.5 hrs. post castor oil; for ED50 (mg/kg, s.c.) antidiarrhoeal, 2.0 hrs.: 2.0 hrs. post castor oil; for ED50 (mg/kg, s.c.) antidiarrhoeal, 3.0 hrs.: 3.0 hrs. post castor oil
Method: Female Cobs Wistar rats (Charles River) were starved for 24 hours prior to subcutaneous administration of the test compound as a solution in 0.85% (w/w) saline and at a volume of 10 ml/kg. Fifteen minutes after the compound each rat received 1 ml. castor oil given orally and the animals were then observed for the appearance of diarrhoea.

[6] = system: guinea pigs; experiment: Antitussive activity (citric acid aerosol-induced cough); conditions: s.c. 30 minutes before 30% citric acid aerosol; calculated as the peptide per se; 95% confidence limits 0.04-2.6 mg/kg
Method: In this test procedure, a modification of that described by Boura et al., Br. J. Pharmac., 39/1 (1970) 225, guinea pigs were subjected to an aerosol containing 30% citric acid, 30 minutes after subcutaneous administration of test compound as a solution in 0.85% (w/w) saline, and the number of coughs during a 121/2-minute exposure counted.

[7] = system: rats; experiment: Toxicology, 14-day subcutaneous administration, rats; conditions: rat; s.c. daily for 14 days at 7.5, 15 or 30 mg/kg per day (as peptide per se)
Method: (§4) The diacetate product of Example 1 was administered subcutaneously to rats and marmosets as a solution in 0.85% (w/w) saline at a volume of 0.1 ml/100 g bodyweight. For each species the compound was given daily for 14 days at a dose (calculated as the peptide per se) selected from 7.5, 15 and 30 mg/kg bodyweight per day.

[8] = system: marmosets; experiment: Toxicology, 14-day subcutaneous administration, marmosets; conditions: s.c. daily for 14 days at 7.5, 15 or 30 mg/kg per day (as peptide per se)
Method: as §4

## CCC(=O)O[C@](Cc1ccccc1)(c1ccccc1)[C@H](C)CN(C)C [Dextropropoxyphene, reference compound]
[1]
  ED50: 4.2 mg/kg
[2]
  ED50: 2.6 mg/kg
[3]
  ED50: 6.8 mg/kg
  Dose ratio (a):(b): 1.0
[4]
  ED50: 25.9 mg/kg

## N=C(N)NCCC[C@@H](NC(=O)[C@@H](N)Cc1ccc(O)cc1)C(=O)NCC(=O)N[C@@H](Cc1ccc([N+](=O)[O-])cc1)C(=O)N1CCC[C@H]1C(N)=O [Ex. 1, H--Tyr--D--Arg--Gly--Phe(4--NO2)--Pro.NH2 diacetate] (H-Y[dR]G[Phe(4-NO2)]P-NH2)
[1]
  ED50 (mg/kg, s.c.) Acetic acid writhing: 4.3 mg/kg
[5]
  ED50 (mg/kg, s.c.) antidiarrhoeal, 1.5 hrs.: 0.79 mg/kg
  ED50 (mg/kg, s.c.) antidiarrhoeal, 2.0 hrs.: 3.19 mg/kg
  ED50 (mg/kg, s.c.) antidiarrhoeal, 3.0 hrs.: 54.9 mg/kg
[6]
  ED50 (dose required to reduce the number of coughs by 50%): 0.26 mg/kg
[2]
  ED50 (mg/kg, s.c.) PBQ writhing: 4.0 mg/kg
[7]
  toxicity attributable to the compound: No toxicity attributable to the compound was seen
[8]
  clinical signs observed: transient post-dose vomiting and salivation at 30 mg/kg and to a lesser extent at the lower doses
[3]
  ED50 (mg/kg, s.c.) Saline control (b): 4.6 mg/kg
  Dose ratio (a):(b): 4.1
[4]
  ED50 (mg/kg, s.c.), hotplate test: 94.8 mg/kg

## COc1ccc2c(c1)c(CC(=O)O)c(C)n2C(=O)c1ccc(Cl)cc1 [Indomethacin, reference compound]
[2]
  ED50: 0.9 mg/kg
[4]
  ED50: > 100 mg/kg

## CN1CC[C@]23c4c5ccc(O)c4O[C@H]2[C@@H](O)C=C[C@H]3[C@H]1C5 [Morphine, reference compound]
[2]
  ED50: 0.38 mg/kg
[3]
  ED50: 0.4 mg/kg
[4]
  ED50: 1.8 mg/kg

## CC(C)=CCN1CCC2(C)c3cc(O)ccc3CC1C2C (stereo not drawn) [Pentazocine, reference compound]
[1]
  ED50: 2.3 mg/kg
[4]
  ED50: > 100 mg/kg

## H--Tyr--D--Met(Me)--Gly--Phe(4NO2)--Pro.NH2 chloride, hydrochloride [Ex. 2]
[1]
  ED50 (mg/kg, s.c.) Acetic acid writhing: 1.2 mg/kg
[5]
  ED50 (mg/kg, s.c.) antidiarrhoeal, 1.5 hrs.: 0.16 mg/kg
  ED50 (mg/kg, s.c.) antidiarrhoeal, 2.0 hrs.: 0.89 mg/kg
  ED50 (mg/kg, s.c.) antidiarrhoeal, 3.0 hrs.: 8.61 mg/kg
[2]
  ED50 (mg/kg, s.c.) PBQ writhing: 4.6 mg/kg
[3]
  ED50 (mg/kg, s.c.) Saline control (b): 1.5 mg/kg
  Dose ratio (a):(b): 3.3
[4]
  ED50 (mg/kg, s.c.), hotplate test: 129.5 mg/kg

## N--AmidinoTyr--D--Met(Me)--Gly--Phe(4NO2)--Pro.NH2 chloride, hydrochloride [Ex. 4]
[1]
  ED50 (mg/kg, s.c.) Acetic acid writhing: 0.6 mg/kg
[5]
  ED50 (mg/kg, s.c.) antidiarrhoeal, 1.5 hrs.: 0.07 mg/kg
  ED50 (mg/kg, s.c.) antidiarrhoeal, 2.0 hrs.: 0.14 mg/kg
  ED50 (mg/kg, s.c.) antidiarrhoeal, 3.0 hrs.: 0.84 mg/kg
[2]
  ED50 (mg/kg, s.c.) PBQ writhing: 1.0 mg/kg
[3]
  ED50 (mg/kg, s.c.) Saline control (b): 0.7 mg/kg
  Dose ratio (a):(b): 4.2
[4]
  ED50 (mg/kg, s.c.), hotplate test: 43.8 mg/kg
